Calls of active or inactive are those of the source.
Legend:
[1] = NIH-3T3 fibroblast cytotoxicity, dose response, cytotoxicity control, cell-based, fluorescence, Alamar Blue, secondary assay (AID 2327); format: functional;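 also: NIH-3T3 mouse fibroblasts cultured with fluconazole at 8 µg/mL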
[2] = C. albicans growth with fluconazole, confirmation, fluorescence, retest (AID 2467); format: functional, cell-based
[3] = inhibitors of intracellular T. cruzi replication, confirmation, NIH3T3 host cells, beta-gal luminescence (AID 2044); format: functional, cell-based;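 also: intracellular parasites grown in NIH/3T3 mouse fibroblasts as host cells; luminescent beta-galactosidase reporter signal from transgenic T. cruzi replicating inside host cells; inhibitors lower the luminescence signal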
[4] = cytotoxicity toward NIH3T3 fibroblasts, dose response, counter-screen, cell-based, ATP luminescence, mouse fibroblasts (AID 2010); format: functional;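 also: cells exposed to compound for about 90 hours before reading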
[5] = inhibitors of HIV Env-driven cell fusion, dose response, cherry-pick (AID 652057); format: functional, cell-based
[6] = CEM21 lymphoblast cell cytotoxicity, dose response, cytotoxicity control for viral fusion inhibitor project, CellTiter-Glo luminescence, cherry-picked (AID 652042); format: functional, cell-based;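 also: potency for signal decrease meaning cytotoxicity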
[7] = ZM109 Env clade C HIV-1 fusion inhibitors, dose response, HeLa effector, CEM target cells, luciferase, cherry-pick (AID 652058); format: functional, cell-based
[8] = off-target signal loss in HeLa-CEM21 co-culture – HeLa F-luc CTL cells, cherry-picked, counter-screen for HIV-1 Env fusion inhibitor project, dose response (AID 652040); format: functional, cell-based;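 also: potency for signal decrease marking cytotoxic or nonspecific inhibition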
[9] = inhibitors of clade B AD8 Env fusion, dose response, cell-based, cherry-pick (AID 652062); format: functional;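 also: luciferase signal from cell-cell fusion driven by HIV-1 clade B AD8 Env; potency is for inhibitors of fusion seen as a drop in luminescence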
[10] = HEK293T cell cytotoxicity, dose response, cytotoxicity control, CellTiter-Glo luminescence, cherry-picked samples, set 4 (AID 743441); format: functional, cell-based; conditions: HEK293
[11] = insulin promoter down-regulators in MIN6 cells, imaging, high-content screening, mouse beta cells (AID 1628); format: functional
[12] = cytotoxicity in MIN6 insulinoma cells, dose response, cytotoxicity control, cell-based, mouse insulinoma (AID 2122); format: functional;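 also: confirmatory high-throughput counterscreen run to flag cytotoxic compounds; mouse MIN-6 beta cells carrying an insulin promoter eGFP reporter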
[13] = microbe, parasite or virus in culture; format: functional; conditions: Mycobacterium tuberculosis
[14] = HEK293T cytotoxicity, dose response, cytotoxicity control for miR-122 modulator project, cell-based, inhibitor set, cherry-pick, set 2 (AID 720697); format: functional
[15] = Shn3 3'UTR reporter inhibitors, dose response, cell-based, Clone20 osteoblasts, firefly luciferase, cherry-picked (AID 624132); format: functional;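 also: firefly luciferase luminescence from reporter carrying the Shn3 3'UTR in osteoblasts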
[16] = HepG2 cell cytotoxicity, dose response, cytotoxicity control for Shn3 inhibitor project, CellTiter-Glo, cherry-picked (AID 624134); format: functional, cell-based
[17] = control 3'UTR Renilla luciferase suppression, dose response, counter-screen for Shn3 inhibitor project, cell-based, Clone20-Shn3RL, cherry-picked (AID 624133); format: functional
[18] = HepG2 cell cytotoxicity, dose response, cytotoxicity control, CellTiter-Glo luminescence, cherry-pick, set 2 (AID 743395); format: functional
[19] = reduction of Shn3 3'UTR firefly luciferase signal, dose response, Schnurri-3 inhibitor project, cell-based, Clone20 osteoblasts, cherry-pick, set 2 (AID 720490); format: functional;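 also: actives lower the luminescence signal as inhibitors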
Aminopeptidase N = target: T1, Aminopeptidase N (Plasmodium falciparum FcB1/Columbia, UniProt O96935); assay: P. falciparum M1AAP inhibitors, biochemical, fluorogenic H-Leu-NHMec substrate, 1536-well (AID 1445); design: species or system Plasmodium falciparum 3D7, 3D7
T1 sequence (O96935 whole entry): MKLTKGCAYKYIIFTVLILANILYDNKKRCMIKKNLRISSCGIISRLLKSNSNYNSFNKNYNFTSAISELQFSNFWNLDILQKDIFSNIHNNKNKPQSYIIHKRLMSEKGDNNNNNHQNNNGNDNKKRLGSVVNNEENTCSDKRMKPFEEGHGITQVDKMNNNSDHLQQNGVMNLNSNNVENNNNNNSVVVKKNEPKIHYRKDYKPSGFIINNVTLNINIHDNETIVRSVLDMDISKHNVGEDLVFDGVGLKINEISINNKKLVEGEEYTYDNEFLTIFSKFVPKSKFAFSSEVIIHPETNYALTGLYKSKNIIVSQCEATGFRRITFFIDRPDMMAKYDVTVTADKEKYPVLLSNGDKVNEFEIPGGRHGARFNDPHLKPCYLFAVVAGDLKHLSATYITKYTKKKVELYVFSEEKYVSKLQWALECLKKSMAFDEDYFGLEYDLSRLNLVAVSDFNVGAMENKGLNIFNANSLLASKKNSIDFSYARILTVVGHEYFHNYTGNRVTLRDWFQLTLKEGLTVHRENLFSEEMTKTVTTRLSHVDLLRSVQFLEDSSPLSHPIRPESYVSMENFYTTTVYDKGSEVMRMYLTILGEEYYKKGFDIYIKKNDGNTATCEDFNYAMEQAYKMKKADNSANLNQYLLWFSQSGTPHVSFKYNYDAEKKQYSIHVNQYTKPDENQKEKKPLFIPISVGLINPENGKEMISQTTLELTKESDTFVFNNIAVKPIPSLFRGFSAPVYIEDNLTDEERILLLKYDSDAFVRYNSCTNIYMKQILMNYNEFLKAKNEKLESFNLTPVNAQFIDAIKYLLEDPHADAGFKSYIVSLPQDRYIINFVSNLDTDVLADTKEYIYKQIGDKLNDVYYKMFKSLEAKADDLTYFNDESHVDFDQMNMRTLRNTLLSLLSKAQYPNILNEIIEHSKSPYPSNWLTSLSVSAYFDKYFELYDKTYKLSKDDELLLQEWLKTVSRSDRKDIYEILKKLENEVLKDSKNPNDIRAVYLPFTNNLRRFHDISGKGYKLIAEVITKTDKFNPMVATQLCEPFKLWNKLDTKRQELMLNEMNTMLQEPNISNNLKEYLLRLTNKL

[20] = target: Endoplasmic reticulum aminopeptidase 1 (Homo sapiens, UniProt Q9NZ08); assay: ERAP1 aminopeptidase inhibitors, dose response, biochemical, cherry-pick, set 2, plate reader (AID 743314)
Chain of Endoplasmic reticulum aminopeptidase 1 (Q9NZ08 whole entry): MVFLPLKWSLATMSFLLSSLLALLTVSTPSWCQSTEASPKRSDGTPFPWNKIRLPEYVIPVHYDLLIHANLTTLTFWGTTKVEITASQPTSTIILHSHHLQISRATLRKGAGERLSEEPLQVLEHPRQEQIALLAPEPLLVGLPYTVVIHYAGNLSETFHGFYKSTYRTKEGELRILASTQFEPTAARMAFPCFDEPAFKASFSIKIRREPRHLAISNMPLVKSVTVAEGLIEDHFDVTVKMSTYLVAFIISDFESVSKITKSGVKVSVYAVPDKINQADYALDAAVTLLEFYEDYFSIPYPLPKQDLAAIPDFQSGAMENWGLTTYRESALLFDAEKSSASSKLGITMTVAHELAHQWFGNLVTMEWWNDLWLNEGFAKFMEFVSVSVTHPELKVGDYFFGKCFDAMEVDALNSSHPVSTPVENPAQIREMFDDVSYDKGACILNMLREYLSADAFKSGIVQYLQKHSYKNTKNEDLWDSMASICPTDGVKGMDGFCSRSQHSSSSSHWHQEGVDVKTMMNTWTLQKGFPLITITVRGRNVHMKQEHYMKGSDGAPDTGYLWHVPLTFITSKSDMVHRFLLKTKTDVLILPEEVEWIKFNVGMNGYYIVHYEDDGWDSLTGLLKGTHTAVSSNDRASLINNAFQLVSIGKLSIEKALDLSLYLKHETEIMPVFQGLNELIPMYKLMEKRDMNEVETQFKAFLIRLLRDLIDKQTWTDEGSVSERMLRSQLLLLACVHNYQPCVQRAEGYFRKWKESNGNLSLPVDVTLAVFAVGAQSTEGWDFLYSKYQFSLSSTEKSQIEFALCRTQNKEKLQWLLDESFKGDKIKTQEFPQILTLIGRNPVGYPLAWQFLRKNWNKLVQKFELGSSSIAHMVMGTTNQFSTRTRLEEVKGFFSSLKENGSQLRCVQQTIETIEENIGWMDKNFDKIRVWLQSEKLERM

[21] = target: Metabotropic glutamate receptor 5 (Rattus norvegicus, UniProt P31424); assay: Identification of a glycine sulfonamide based non-MPEP site positive allosteric potentiator (PAM) of mGlu5 (calcium_assay).; format: functional
Chain of Metabotropic glutamate receptor 5 (P31424 whole entry): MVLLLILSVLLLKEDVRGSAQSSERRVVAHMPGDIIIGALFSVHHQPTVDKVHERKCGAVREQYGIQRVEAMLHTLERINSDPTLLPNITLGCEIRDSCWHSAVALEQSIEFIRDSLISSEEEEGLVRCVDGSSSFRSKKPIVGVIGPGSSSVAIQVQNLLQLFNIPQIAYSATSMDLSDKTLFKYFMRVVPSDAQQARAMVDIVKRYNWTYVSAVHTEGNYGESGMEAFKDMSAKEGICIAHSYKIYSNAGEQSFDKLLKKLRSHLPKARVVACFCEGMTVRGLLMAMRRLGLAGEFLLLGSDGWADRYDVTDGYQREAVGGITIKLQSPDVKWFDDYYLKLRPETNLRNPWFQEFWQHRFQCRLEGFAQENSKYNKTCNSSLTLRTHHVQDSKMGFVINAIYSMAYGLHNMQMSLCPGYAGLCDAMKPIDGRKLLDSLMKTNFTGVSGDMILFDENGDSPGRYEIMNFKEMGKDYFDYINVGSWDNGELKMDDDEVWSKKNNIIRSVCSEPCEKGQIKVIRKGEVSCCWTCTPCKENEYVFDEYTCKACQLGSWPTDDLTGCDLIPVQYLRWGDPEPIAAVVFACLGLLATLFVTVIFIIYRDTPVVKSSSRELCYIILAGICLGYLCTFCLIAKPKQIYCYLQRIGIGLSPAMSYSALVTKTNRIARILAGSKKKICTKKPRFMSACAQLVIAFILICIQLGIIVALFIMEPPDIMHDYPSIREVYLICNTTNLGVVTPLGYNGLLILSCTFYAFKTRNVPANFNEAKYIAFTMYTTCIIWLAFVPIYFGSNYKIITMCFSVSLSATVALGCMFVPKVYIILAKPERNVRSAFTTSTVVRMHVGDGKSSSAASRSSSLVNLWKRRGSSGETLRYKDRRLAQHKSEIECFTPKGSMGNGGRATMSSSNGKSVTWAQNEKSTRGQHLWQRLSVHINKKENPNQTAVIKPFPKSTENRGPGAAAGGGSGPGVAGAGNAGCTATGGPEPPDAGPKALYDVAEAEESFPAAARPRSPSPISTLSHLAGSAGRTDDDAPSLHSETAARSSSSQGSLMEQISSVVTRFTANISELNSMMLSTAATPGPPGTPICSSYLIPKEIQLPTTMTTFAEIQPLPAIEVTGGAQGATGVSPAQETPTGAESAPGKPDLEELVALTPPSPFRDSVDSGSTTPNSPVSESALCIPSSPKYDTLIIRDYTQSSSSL

Paired box protein Pax-8 = Paired box protein Pax-8 (Homo sapiens, UniProt Q06710); assay: inhibitors of PAX8-driven TPO luciferase reporter, dose response, RMG-I cells, cherry-pick (AID 687027); format: functional, cell-based;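 also: luciferase reporter driven by Pax8 target thyroperoxidase promoter measured by SteadyGlo luminescence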
Chain of Paired box protein Pax-8 (Q06710 whole entry): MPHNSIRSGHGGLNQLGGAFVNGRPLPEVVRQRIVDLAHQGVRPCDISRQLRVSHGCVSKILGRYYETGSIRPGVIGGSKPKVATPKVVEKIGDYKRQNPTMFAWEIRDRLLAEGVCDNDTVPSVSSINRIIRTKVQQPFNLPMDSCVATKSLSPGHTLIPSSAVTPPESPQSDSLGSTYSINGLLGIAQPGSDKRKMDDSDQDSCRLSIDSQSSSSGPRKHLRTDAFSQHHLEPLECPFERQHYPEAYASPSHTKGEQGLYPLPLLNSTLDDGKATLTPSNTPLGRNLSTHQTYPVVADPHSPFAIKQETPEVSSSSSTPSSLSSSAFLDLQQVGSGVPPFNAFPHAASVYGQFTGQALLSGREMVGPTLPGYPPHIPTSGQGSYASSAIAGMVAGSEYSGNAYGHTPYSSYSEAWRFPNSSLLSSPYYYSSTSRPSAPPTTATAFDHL

[22] = IOSE-T80 ovarian epithelial cell cytotoxicity, dose response, cytotoxicity control for PAX8 inhibitor project, plate reader, dry powder samples (AID 743045); format: functional, cell-based
[23] = A2780 ovarian cancer cell cytotoxicity, dose response, cytotoxicity control, plate reader, dry powder samples (AID 743046); format: functional, cell-based
[24] = NIH:OVCAR-3 ovarian cancer cell cytotoxicity, dose response, PAX8 inhibitor project, plate reader, dry powder samples (AID 743044); format: functional, cell-based
[25] = IGROV1 ovarian cancer cell cytotoxicity, dose response, PAX8 inhibitor project, plate reader, dry powder samples (AID 743043); format: functional, cell-based; conditions: IGROV-1
[26] = non-specific cell cytotoxicity, dose response, cytotoxicity control for PAX8 inhibitor project, plate reader, dry powder samples (AID 743021); format: functional, cell-based
[27] = cytotoxicity in OVCAR8 ovarian cancer cells, dose response, PAX8 project, cell-based, plate reader, dry powder samples (AID 743197); format: functional; conditions: OVCAR-8
[28] = P. falciparum Dd2 growth inhibitors, dose response, SYBR Green, cherry-picked samples (AID 1159567); format: functional, cell-based
[29] = HepG2 cell cytotoxicity, dose response, cytotoxicity control, cherry-picked samples (AID 1159577); format: functional, cell-based
HeLa = assay: HeLa cell cytotoxicity, dose response, cytotoxicity control, ATP luminescence, cherry-pick samples (AID 687004); format: functional, cell-based; conditions: Homo sapiens
[30] = PAX2 cell-based inhibition, dose response, selectivity assay for PAX8 inhibitor project, plate reader, dry powder samples (AID 743048); format: functional;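 also: HEK293 cells carrying a WT1 promoter luciferase reporter driven by expressed Pax2; potency is for inhibition of Pax2 driven reporter signal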
[31] = cytotoxicity in COV362 ovarian cancer cells, dose response, cytotoxicity control for PAX8 inhibitor project, cell-based, plate reader, dry powder, SA12 (AID 743144); format: functional
[32] = PAX5 activity inhibitors, dose response, selectivity assay for PAX8 inhibitor project, cell-based, plate reader, dry powder samples (AID 743047); format: functional;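 also: HEK293 cells carrying a Pax5 driven CD19 promoter luciferase reporter; potency of inhibitors that lower reporter luminescence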
[33] = cytotoxicity in COV434 cells, dose response, cytotoxicity control for PAX8 inhibitor project, cell-based, plate reader, dry powder, SA7 (AID 743145); format: functional
[34] = cytotoxicity in OV-90 ovarian cancer cells, dose response, PAX8 inhibitor project, cell-based, plate reader, dry powder, SA8 (AID 743149); format: functional
[35] = cytotoxicity dependent on PAX8, dose response, cell-based, plate reader, dry powder (AID 743049); format: functional
[36] = target: Delta-type opioid receptor (Homo sapiens, UniProt P41143); assay: Late-stage results from the probe development effort to identify antagonists of OPRK1: fluorescence-based cell-based dose response OPRD1 counterscreen.; format: functional
Chain of Delta-type opioid receptor (P41143 whole entry): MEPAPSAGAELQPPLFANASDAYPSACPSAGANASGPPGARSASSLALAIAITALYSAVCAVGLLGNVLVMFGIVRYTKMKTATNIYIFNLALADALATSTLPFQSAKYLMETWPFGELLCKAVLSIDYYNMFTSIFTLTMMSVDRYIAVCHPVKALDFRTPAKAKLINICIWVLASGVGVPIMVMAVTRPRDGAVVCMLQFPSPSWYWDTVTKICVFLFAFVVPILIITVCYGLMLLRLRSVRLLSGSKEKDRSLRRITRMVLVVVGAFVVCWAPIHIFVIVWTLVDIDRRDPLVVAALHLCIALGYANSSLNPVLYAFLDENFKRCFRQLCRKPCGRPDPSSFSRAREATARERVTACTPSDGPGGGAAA

Mu-type opioid receptor = Mu-type opioid receptor (Homo sapiens, UniProt P35372); assay: Late-stage results from the probe development effort to identify antagonists of OPRK1: luminescence-based cell-based dose response OPRM1 counterscreen.; format: functional
Chain of Mu-type opioid receptor (P35372 whole entry): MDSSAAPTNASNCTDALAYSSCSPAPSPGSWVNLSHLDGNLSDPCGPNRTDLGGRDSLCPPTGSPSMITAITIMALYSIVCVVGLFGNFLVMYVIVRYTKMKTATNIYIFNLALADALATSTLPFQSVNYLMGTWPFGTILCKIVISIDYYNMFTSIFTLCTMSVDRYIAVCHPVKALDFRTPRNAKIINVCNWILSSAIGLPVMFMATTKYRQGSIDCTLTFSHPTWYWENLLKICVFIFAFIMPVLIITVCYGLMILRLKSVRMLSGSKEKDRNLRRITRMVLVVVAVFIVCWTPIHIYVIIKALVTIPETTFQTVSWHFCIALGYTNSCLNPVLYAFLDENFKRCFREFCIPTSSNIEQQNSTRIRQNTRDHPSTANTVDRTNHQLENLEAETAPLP

INS1 = assay: beta cell apoptosis inhibitors, cytokine rescue, dose response, luminescence, retest (AID 449756); format: functional, cell-based; conditions: Rattus norvegicus;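 also: cell death triggered by IL-1 beta plus TNF-alpha plus IFN-gamma mixture; protective hits raise ATP signal compared with cytokine alone wells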
[37] = miR-122 activators in hepatoma reporter cells, dose response, cell-based, Huh7 psiCHECK-miR122, Renilla luciferase, cherry-picked (AID 651956); format: functional;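 also: huh7 hepatoma cells stably carrying a psiCHECK-2 miR-122 sensor plasmid; renilla luciferase signal reporting endogenous miR-122 activity after 48 h compound exposure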
[38] = HEK293T cytotoxicity, dose response, cytotoxicity control for miR-122 modulator project, cell-based, activator set, cherry-pick (AID 720690); format: functional;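 also: HEK293T human cells scored for general mammalian cytotoxicity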
[39] = P. falciparum 3D7-ScDHODH growth inhibitors, dose response, SYBR Green, dry powder samples (AID 1159570); format: functional, cell-based;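 also: parasite growth measured after 72 hours of compound exposure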
[40] = HepG2 cell cytotoxicity, dose response, cytotoxicity control, plate reader, dry powder samples (AID 1159569); format: functional, cell-based;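 also: inhibitor potency with signal falling toward the positive control level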
[41] = P. falciparum Dd2 growth inhibitors, dose response, SYBR Green, dry powder samples, set 9 (AID 1159568); format: functional, cell-based
[42] = P. falciparum Dd2 growth inhibitors, dose response, SYBR Green, dry powder samples (AID 1159566); format: functional, cell-based;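 also: potency for growth inhibition with lower SYBR green DNA signal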
[43] = P. falciparum ATP4 D1247Y mutant growth inhibitors, dose response, NITD609-resistant line, SYBR Green, dry powder (AID 1159571); format: functional, cell-based;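 also: parasites synchronized at ring stage by sorbitol before testing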

O=C(COc1ccc(Cl)cc1Cl)N1CCCN(C(=O)COc2ccc(Cl)cc2Cl)CC1
EC50 [1]: > 150 µM (inactive) | EC50 [2]: 2.18 µM (active) | EC50 [3]: 1.39 µM (active) | EC50 [4]: > 30 µM (not active) | AC50 [5]: 3.52 µM (active) | AC50 [6]: 68.3 µM (active) | AC50 [7]: 3.44 µM (active) | AC50 [8]: 5.48 µM (active) | AC50 [9]: 3.24 µM (active)

Cc1c(C(=O)O)sc2nc(CSc3ncc(C(F)(F)F)cc3Cl)nc(O)c12
AC50 [10]: > 52 µM (inactive)

COc1ccc(-c2oc3ncnc(NCCCN4CCOCC4)c3c2-c2ccc(OC)cc2)cc1
IC50 [11]: 0.898 µM (active) | IC50 [12]: > 16 µM (inactive) | CC50 [13]: 24.8 µM (active) | AC50 [14]: 1.51 µM (active)

CCOC(=O)c1oc2ccc(S(=O)(=O)n3nc(-c4ccccc4)cc3N)cc2c1C
IC50 [11]: 1.08 µM (active) | IC50 [12]: 1.01 µM (active) | AC50 [15]: 0.854 µM (active) | AC50 [16]: 56.8 µM (active) | AC50 [17]: 7.82 µM (active) | AbsAC35_uM [18]: 31.08 µM

CCOC(=O)N1CCN(c2ccc(S(=O)(=O)N(Cc3ccccc3)Cc3ccccc3)cn2)CC1
AC50 [15]: 2.59 µM (active) | AC50 [16]: 45 µM (active) | AC50 [17]: 34.3 µM (active) | AC50 [19]: 2.09 µM (active)

CCc1c(C)c2cc(Cl)c(O)c(CN(CC)CC)c2oc1=O
IC50 (Aminopeptidase N): 34.6 µM (active) | AC50 [20]: 6.85 µM (active)

CS(=O)(=O)N1c2ccccc2CCC1C(=O)Nc1ccccn1 (stereo unspecified)
EC50 [21]: 0.944 µM

COc1ccc(C#Cc2ccc([C@@H]3[C@H](CO)N4CCCCN(C(=O)Nc5cccc(F)c5)C[C@@H]34)cc2)cc1
AC50 (Paired box protein Pax-8): 9.89 µM (active) | AC50 [22]: 16.3 µM (active) | AC50 [23]: 15.3 µM (active) | AC50 [24]: 10 µM (active) | AC50 [25]: 10.5 µM (active) | AC50 [26]: 40.6 µM (active) | AC50 [27]: 18.1 µM (active) | AC50 [28]: 1.43 µM (active) | AC50 [29]: 6.45 µM (active)

COc1cccc(-c2cn(CC[C@@H]3CC[C@@H](NC(C)=O)[C@H](CO)O3)nn2)c1
AC50 (HeLa): > 52 µM (inactive)

CCCC#Cc1ccc([C@@H]2[C@@H](C#N)N(C(=O)C3CCCCC3)[C@H]2CO)cc1
AC50 (Paired box protein Pax-8): 6.02 µM (active) | AC50 [30]: 14.1 µM (active) | AC50 [31]: 41.8 µM (active) | AC50 [32]: 18.3 µM (active) | AC50 [33]: 34.5 µM (active) | AC50 [34]: 36 µM (active) | AC50 [27]: 51 µM (active) | AC50 [35]: 31 µM (active)

COC(=O)c1cc(Br)cnc1N1CCC(NC2CCC(C)CC2)CC1 (stereo unspecified)
IC50 [36]: 18 µM (inactive) | IC50 (Mu-type opioid receptor): 8.6 µM (active)

Cc1cc(C(=O)N/N=C/c2cc(Br)ccc2OC(=O)c2ccccc2)[nH]n1
AC50 (INS1): 1.91 µM (active) | AC50 [37]: 43.1 µM (active) | AC50 [38]: 16.6 µM (active)

COc1ccc(C#Cc2ccc3c(c2)O[C@@H](CN(C)C(=O)Nc2cccc(OC)c2)[C@@H](C)CN([C@@H](C)CO)S3(=O)=O)cc1
AC50 [39]: 0.603 µM (active) | AC50 [40]: > 100 µM (inactive) | AC50 [41]: 0.399 µM (active) | AC50 [28]: 1.09 µM (active) | AC50 [42]: 0.405 µM (active) | AC50 [43]: 0.556 µM (active)
